Measured values: ChEMBL document CHEMBL4311943, “3-[(1S,2S,3R)-2,3-Difluoro-1-hydroxy-7-methylsulfonylindan-4-yl]oxy-5-fluorobenzonitrile (PT2977), a Hypoxia-Inducible Factor 2α (HIF-2α) Inhibitor for the Treatment of Clear Cell Renal Cell Carcinoma” (J Med Chem, 2019)
Active and inactive are the calls of the source. The rule behind the calls is not given here.

Legend:
[1] = target: D(1A) dopamine receptor (Homo sapiens) (UniProt P21728); experiment: Activity at human D1 receptor at 10 uM
[2] = target: Neuromedin-U receptor 1 (Homo sapiens) (UniProt Q9HB89); experiment: Activity at human NMU1 receptor at 10 uM
[3] = target: Cannabinoid receptor 2 (Homo sapiens) (UniProt P34972); experiment: Activity at human CB2 receptor at 10 uM
[4] = target: Sphingosine 1-phosphate receptor 3 (Homo sapiens) (UniProt Q99500); experiment: Activity at human S1P3 receptor at 10 uM
[5] = Volume of distribution at steady state in Beagle dog at 1 mg/kg, iv by UPLC-MS analysis; assay type: ADME, organism-based, Canis lupus familiaris; details: in vivo, read-out: Vdss
[6] = target: T1, UDP-glucuronosyltransferase 2B17 (Homo sapiens, UniProt O75795); experiment: Substrate activity at UGT2B17 in human intestinal microsomes assessed as enzyme-mediated glucuronidation by measuring Vmax per mg protein at 2 to 1000 uM preincubated for 5 mins followed by UDPGA addition and measured after 60 mins by LC-MS/MS analysis; assay type: ADME, Intestine; details: 1 h
T1 sequence (O75795 whole entry): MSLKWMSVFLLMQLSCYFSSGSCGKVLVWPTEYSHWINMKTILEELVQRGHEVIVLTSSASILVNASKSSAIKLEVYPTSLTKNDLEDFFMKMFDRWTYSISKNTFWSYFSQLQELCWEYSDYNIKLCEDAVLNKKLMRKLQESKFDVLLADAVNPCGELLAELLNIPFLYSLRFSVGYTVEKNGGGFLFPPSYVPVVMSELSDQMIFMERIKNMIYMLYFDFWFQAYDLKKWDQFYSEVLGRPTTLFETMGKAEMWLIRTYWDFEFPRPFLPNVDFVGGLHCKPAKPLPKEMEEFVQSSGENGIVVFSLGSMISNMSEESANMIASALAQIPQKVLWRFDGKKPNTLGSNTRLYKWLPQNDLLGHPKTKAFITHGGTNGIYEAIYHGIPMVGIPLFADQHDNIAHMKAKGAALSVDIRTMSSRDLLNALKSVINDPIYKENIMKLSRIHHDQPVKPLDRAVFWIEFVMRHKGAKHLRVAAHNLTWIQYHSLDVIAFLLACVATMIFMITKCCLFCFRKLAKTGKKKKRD

Cytochrome P450 2C9 = Cytochrome P450 2C9 (Homo sapiens, UniProt P11712); experiment: Inhibition of CYP2C9 in human liver microsomes up to 50 uM using diclofenac as substrate measured after 10 mins in presence of NADPH by LC-MS/MS analysis; assay type: ADME
[7] = Clearance in monkey at 1 mg/kg, iv by UPLC-MS analysis; assay type: ADME, organism-based, Macaca mulatta; details: rhesus monkey, in vivo
[8] = target: Vasoactive intestinal polypeptide receptor 1 (Homo sapiens) (UniProt P32241); experiment: Activity at human VPAC1 at 10 uM
[9] = target: Potassium/sodium hyperpolarization-activated cyclic nucleotide-gated channel 4 (Homo sapiens) (UniProt Q9Y3Q4); experiment: Activity at human HCN4 at 10 uM
[10] = Cmax in patient with advanced solid tumor at 80 mg, po administered once daily measured on day 15; assay type: ADME, organism-based; parameters: dose 80 mg, route oral; details: human, in vivo
[11] = target: Potassium voltage-gated channel subfamily KQT member 1 (Homo sapiens, UniProt P51787); experiment: Activity at human KCNQ1 at 10 uM
[12] = target: Endothelin receptor type B (Homo sapiens) (UniProt P24530); experiment: Activity at human ETB receptor at 10 uM
[13] = target: Vasopressin V1a receptor (Homo sapiens) (UniProt P37288); experiment: Activity at human V1A receptor at 10 uM
[14] = Volume of distribution at steady state in Sprague-Dawley rat at 1 mg/kg, iv by UPLC-MS analysis; assay type: ADME, organism-based; details: in vivo, read-out: Vdss
[15] = target: Protein kinase C eta type (Homo sapiens) (UniProt P24723); experiment: Activity at human PKCeta at 10 uM
[16] = Lipophilicity, log D of the compound at pH 7.4; assay type: physicochemical; details: buffer
[17] = target: Voltage-gated L-type calcium channel (Homo sapiens, UniProt Q13936+Q13698+Q01668+O60840); experiment: Activity at human L-type calcium channel at 10 uM; assay type: protein assay
[18] = target: Melanocortin receptor 5 (Homo sapiens) (UniProt P33032); experiment: Activity at human MC5 receptor at 10 uM
[19] = Half life in CD-1 mouse at 3 mg/kg, iv by UPLC-MS analysis; assay type: ADME, organism-based; details: in vivo
Mus musculus = experiment: In vivo inhibition of HIF-2alpha in SCID Beige mouse xenografted with human 786-O cells assessed as reduction in cyclin D1 mRNA expression administered twice daily via oral gavage for 3 days measured 12 hrs post-last dose by qRT-PCR analysis; assay type: functional, organism-based
[20] = Dose normalized AUClast in Beagle dog at 5 mg/kg, po administered via gavage by UPLC-MS analysis; assay type: ADME, organism-based, Canis lupus familiaris; details: in vivo
[21] = Half life in patient with advanced solid tumor at 20 mg, po administered once daily measured on day 15; assay type: ADME, organism-based; details: human, in vivo
[22] = Protein binding in mouse plasma at 10 uM measured after 4 hrs by LC-MS/MS analysis; assay type: ADME, cell-free; details: read-out: PPB (converted)
[23] = target: Urotensin-2 receptor (Homo sapiens) (UniProt Q9UKP6); experiment: Activity at human GPR14 receptor at 10 uM
[24] = target: Histamine H1 receptor (Homo sapiens) (UniProt P35367); experiment: Activity at human H1 receptor at 10 uM
[25] = target: 5-hydroxytryptamine receptor 2A (Homo sapiens) (UniProt P28223); experiment: Activity at human 5-HT2A receptor at 10 uM
[26] = target: Thromboxane A2 receptor (Homo sapiens) (UniProt P21731); experiment: Activity at human Prostanoid TP receptor at 10 uM
[27] = target: Galanin receptor type 1 (Homo sapiens) (UniProt P47211); experiment: Activity at human GAL1 receptor at 10 uM
[28] = Drug level in plasma of SCID Beige mouse xenografted with human 786-O cells at 3 mg/kg, po administered twice daily via gavage for 3 days measured 12 hrs post-last dose; assay type: ADME, organism-based
Cytochrome P450 3A4 = Cytochrome P450 3A4 (Homo sapiens, UniProt P08684); experiment: Inhibition of CYP3A4 in human liver microsomes up to 50 uM using midazolam as substrate measured after 10 mins in presence of NADPH by LC-MS/MS analysis; assay type: ADME
[29] = target: Vasoactive intestinal polypeptide receptor 1 (Homo sapiens) (UniProt P32241); experiment: Activity at human VPAC1 long isoform at 10 uM
[30] = AUClast in patient with advanced solid tumor at 160 mg, po administered once daily measured on day 15; assay type: ADME, organism-based; parameters: dose 160 mg, time 0 - last, route oral; details: human, in vivo
[31] = target: Gastrin/cholecystokinin type B receptor (Homo sapiens) (UniProt P32239); experiment: Activity at human CCK2 receptor at 10 uM
[32] = Volume of distribution at steady state in CD-1 mouse at 3 mg/kg, iv by UPLC-MS analysis; assay type: ADME, organism-based; details: in vivo, read-out: Vdss
[33] = target: Calcium/calmodulin-dependent protein kinase type IV (Homo sapiens) (UniProt Q16566); experiment: Activity at human CAMK4 at 10 uM
[34] = target: Mitogen-activated protein kinase 1 (Homo sapiens) (UniProt P28482); experiment: Activity at human MAPK1 at 10 uM

Chain of Vasoactive intestinal polypeptide receptor 1 (Homo sapiens) (P32241 whole entry, canonical isoform): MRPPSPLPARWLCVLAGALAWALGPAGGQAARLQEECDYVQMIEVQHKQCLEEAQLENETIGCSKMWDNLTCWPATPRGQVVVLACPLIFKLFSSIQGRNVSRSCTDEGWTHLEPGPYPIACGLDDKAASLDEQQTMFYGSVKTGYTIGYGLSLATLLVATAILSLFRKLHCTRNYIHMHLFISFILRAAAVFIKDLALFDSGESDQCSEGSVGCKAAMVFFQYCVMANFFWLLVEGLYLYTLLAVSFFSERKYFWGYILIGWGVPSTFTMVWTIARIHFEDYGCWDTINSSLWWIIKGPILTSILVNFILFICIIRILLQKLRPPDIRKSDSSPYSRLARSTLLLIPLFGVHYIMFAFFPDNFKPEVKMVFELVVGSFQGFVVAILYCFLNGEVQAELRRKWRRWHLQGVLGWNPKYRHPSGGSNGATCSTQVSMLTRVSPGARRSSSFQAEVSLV
Chain of Potassium/sodium hyperpolarization-activated cyclic nucleotide-gated channel 4 (Homo sapiens) (Q9Y3Q4 whole entry): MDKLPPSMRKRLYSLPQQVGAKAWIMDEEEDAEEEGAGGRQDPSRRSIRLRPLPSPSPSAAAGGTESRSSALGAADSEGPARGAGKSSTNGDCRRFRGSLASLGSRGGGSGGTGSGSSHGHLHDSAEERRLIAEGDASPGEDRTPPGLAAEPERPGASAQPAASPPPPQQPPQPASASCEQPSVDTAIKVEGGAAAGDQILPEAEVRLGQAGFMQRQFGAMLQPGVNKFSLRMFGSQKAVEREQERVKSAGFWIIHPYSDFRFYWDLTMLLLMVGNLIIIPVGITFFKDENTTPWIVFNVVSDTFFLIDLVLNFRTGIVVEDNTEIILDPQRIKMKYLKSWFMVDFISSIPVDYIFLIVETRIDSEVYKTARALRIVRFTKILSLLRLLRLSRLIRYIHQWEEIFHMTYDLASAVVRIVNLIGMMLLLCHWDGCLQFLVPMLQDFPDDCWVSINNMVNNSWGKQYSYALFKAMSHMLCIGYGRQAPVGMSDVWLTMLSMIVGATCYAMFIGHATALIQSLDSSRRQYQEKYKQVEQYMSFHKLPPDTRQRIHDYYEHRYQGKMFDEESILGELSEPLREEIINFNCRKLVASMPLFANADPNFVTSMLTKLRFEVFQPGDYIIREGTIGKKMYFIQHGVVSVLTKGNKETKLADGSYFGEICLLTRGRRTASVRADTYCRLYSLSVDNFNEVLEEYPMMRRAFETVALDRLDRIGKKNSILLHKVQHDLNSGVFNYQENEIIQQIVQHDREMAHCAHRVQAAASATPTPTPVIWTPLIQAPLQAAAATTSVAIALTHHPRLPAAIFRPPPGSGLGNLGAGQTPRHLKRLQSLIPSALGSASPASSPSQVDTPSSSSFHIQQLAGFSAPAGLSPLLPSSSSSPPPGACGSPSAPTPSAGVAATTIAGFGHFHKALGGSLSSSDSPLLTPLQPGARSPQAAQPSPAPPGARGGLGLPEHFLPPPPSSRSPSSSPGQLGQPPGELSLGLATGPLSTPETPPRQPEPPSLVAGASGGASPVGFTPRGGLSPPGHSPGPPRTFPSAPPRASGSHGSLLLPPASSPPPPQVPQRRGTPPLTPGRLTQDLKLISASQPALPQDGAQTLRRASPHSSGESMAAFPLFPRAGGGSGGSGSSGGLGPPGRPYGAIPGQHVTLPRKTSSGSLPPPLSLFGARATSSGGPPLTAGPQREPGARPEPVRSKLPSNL
Chain of Histamine H1 receptor (Homo sapiens) (P35367 whole entry): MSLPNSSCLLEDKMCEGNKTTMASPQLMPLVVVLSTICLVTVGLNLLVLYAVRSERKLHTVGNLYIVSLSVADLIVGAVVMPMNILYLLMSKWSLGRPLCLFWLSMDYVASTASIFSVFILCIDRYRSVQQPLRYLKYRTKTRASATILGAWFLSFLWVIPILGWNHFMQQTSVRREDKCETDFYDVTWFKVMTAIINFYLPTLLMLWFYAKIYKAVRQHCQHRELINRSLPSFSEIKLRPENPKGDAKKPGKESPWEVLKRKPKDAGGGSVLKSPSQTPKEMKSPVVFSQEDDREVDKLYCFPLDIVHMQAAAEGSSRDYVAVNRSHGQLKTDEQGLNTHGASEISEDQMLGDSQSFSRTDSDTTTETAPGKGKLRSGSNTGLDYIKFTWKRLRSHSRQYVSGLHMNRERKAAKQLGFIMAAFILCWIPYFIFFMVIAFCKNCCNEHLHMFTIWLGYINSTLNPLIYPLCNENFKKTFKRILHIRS
Chain of Urotensin-2 receptor (Homo sapiens) (Q9UKP6 whole entry): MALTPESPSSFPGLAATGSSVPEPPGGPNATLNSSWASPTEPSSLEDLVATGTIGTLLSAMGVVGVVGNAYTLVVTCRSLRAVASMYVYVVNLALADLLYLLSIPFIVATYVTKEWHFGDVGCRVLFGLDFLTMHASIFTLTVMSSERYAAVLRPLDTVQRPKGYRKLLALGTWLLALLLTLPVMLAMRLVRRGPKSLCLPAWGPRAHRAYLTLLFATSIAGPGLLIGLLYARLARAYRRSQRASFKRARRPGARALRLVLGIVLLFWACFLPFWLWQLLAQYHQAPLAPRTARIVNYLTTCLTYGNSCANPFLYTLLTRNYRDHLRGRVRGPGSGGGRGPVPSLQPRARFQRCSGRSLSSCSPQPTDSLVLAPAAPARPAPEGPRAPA
Chain of Cannabinoid receptor 2 (Homo sapiens) (P34972 whole entry): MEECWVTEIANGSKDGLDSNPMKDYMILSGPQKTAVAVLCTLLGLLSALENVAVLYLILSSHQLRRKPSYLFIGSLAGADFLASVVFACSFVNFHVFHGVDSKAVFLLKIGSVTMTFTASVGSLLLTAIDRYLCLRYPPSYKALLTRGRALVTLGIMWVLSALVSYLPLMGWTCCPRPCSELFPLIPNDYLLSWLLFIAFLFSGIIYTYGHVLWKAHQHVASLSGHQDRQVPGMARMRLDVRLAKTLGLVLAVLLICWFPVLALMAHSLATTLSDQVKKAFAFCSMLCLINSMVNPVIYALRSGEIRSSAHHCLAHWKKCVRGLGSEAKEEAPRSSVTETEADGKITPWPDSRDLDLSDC
Chain of Cytochrome P450 2C9 (P11712 whole entry): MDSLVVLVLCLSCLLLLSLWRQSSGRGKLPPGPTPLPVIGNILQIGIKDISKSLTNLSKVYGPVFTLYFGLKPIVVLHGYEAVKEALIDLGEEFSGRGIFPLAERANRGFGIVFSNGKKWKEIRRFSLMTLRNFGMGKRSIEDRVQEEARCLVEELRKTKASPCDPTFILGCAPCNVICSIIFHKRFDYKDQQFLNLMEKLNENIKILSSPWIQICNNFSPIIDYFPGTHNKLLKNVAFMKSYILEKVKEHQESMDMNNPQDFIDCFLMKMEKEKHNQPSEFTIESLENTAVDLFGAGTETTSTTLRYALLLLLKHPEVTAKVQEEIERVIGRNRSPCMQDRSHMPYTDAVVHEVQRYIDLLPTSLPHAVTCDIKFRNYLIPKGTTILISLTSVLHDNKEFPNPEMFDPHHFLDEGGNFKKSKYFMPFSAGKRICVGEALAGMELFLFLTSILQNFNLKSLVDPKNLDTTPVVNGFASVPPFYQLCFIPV
Chain of Vasopressin V1a receptor (Homo sapiens) (P37288 whole entry, looked up): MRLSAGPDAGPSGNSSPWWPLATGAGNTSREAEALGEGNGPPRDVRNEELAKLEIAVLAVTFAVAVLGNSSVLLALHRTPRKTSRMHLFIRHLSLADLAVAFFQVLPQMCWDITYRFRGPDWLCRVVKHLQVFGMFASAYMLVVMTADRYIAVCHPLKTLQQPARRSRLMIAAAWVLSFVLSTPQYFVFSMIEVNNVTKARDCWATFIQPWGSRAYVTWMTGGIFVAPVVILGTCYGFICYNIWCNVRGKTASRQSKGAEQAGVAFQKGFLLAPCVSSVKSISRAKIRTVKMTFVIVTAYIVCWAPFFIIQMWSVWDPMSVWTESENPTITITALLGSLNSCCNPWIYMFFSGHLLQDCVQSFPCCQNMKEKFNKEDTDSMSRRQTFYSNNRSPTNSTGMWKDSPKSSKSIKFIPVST
Chain of D(1A) dopamine receptor (Homo sapiens) (P21728 whole entry): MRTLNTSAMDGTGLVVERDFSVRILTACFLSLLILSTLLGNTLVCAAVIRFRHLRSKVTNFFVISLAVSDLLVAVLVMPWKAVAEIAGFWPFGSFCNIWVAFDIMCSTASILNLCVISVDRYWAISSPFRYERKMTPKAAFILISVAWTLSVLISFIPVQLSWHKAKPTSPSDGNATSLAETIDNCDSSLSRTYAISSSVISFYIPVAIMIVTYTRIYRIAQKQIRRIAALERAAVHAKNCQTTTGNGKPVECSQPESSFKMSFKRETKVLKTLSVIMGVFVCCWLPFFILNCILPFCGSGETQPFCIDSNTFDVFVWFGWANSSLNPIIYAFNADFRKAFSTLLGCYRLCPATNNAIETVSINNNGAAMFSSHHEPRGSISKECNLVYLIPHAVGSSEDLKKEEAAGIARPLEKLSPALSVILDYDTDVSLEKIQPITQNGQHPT
Chain of Neuromedin-U receptor 1 (Homo sapiens) (Q9HB89 whole entry): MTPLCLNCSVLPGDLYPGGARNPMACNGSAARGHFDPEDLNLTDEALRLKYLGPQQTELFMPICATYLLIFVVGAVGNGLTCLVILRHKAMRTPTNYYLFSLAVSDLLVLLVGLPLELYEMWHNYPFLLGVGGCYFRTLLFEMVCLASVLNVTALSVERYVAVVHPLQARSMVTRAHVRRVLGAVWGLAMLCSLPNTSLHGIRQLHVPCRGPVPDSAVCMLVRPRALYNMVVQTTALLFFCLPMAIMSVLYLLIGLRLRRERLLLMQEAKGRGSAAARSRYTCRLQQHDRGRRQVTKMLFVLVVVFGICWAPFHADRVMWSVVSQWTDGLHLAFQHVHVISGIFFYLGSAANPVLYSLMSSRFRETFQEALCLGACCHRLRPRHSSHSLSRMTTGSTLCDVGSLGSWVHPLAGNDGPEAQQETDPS

Activity [1]: inactive
Activity [2]: inactive
Activity [3]: inactive
Activity [4]: inactive
Vd [5]: 1.3 L/kg
Vmax [6]: 0.5 pmol/min
inhibition (INH) (Cytochrome P450 2C9): Not Active
clearance [7]: 3.5 mL/min/kg
Activity [8]: inactive
Activity [9]: inactive
Cmax [10]: 1400 ng/mL
Activity [11]: Not Active
Activity [12]: inactive
Activity [13]: inactive
Vd [14]: 1.6 L/kg
Activity [15]: inactive
logD [16]: 1.2
Activity [17]: Not Active
Activity [18]: inactive
half-life [19]: 4 h
AUClast/dose [20]: 60 µM·h
half-life [21]: 12.5 h
fraction unbound at 4 h, 10 µM [22]: 0.44
Activity [23]: inactive
Activity [24]: inactive
Activity [25]: inactive
Activity [26]: inactive
Activity [27]: inactive
concentration at 12 h [28]: 59 ng/mL
inhibition (INH) (Cytochrome P450 3A4): Not Active
Activity [29]: inactive
AUC(0-t) [30]: 21000 ng·h/mL
Activity [31]: inactive
Vd [32]: 4.9 L/kg
Activity [33]: inactive
Activity [34]: inactive
SMILES: CS(=O)(=O)c1ccc(Oc2cc(F)cc(C#N)c2)c2c1[C@H](O)[C@H](F)[C@@H]2F [BELZUTIFAN]
inhibition (Mus musculus): Dose-dependent effect
